Reference: patent publication US11603364B2, “Acyl hydrazone derivative compounds for treating disease” (Alterity Therapeutics Limited, priority 2020, dated 2023)

Experiments:
BE(2)-M17 (M17) cells = assay: Method I: Measurement of Fe efflux from cells (57Fe-loaded, ICP-MS of media); format: cell-based, human; settings: M17 cells loaded with 20 μM 57Fe, compound 20 μM, 2 h; for activation at 20 µM: Homo sapiens, read-out: Fe-Efflux (% increase of Fe in media relative to cell media in the absence of the compound)
Protocol: Method I: Measurement of Fe Efflux from Cells
Compounds of the current invention were assessed for their ability to efflux iron (Fe) from a cell using the following protocol.
The human neuroblastoma line BE(2)-M17 (M17) cell cultures were acquired from Sigma Aldrich (Catalogue #: 95011816). M17 Cells were maintained in Opti-MEM reduced serum media supplemented with 10% fetal bovine serum (Bovogen, SFBSF) and passaged twice weekly. Cells were cultured at 37° C. in the presence of 5% CO2. Culture supplies were sourced from Thermo Fisher unless otherwise stated.
A solution of ^57Fe cold isotope was prepared by dissolving ^57Fe metal (>95% enrichment, Trace Sciences International) in concentrated HCl to give a final concentration of 573 mM. From this master solution, a 10 mM working solution was prepared in sterile water. The working solution was used within two months of preparation.
M17 cells were loaded with iron initially by seeding into 48-well plates at a density of 0.15×10^6 cells per well in 0.5 mL media. After 48 h, old media was discarded. Fresh media was supplemented with 20 μM ^57Fe isotope, from the 10 mM ^57Fe working solution. Cells received 0.2 mL of this ^57Fe enriched media and were returned to the incubator for 20 h. The ability of experimental compounds to efflux iron was determined by the dissolution of compounds in DMSO and diluted in Hanks' Balanced Salt Solution (HBSS) for treatment of M17 cells. After ^57Fe incubation, cells were rinsed twice with HBSS and treated with 0.15 mL trial compound for 2 h at a concentration of 20 μM. All assays included a relevant vehicle (0.4%-0.8% DMSO) as well as a positive control (20 μM). Following the treatment period, 0.1 mL of media was collected from cells and the extracellular ^57Fe content was analysed via inductively coupled mass spectrometry (ICP-MS, Agilent 7700x series instrument).
To perform this protocol the following supplies were purchased from Sigma Aldrich: anhydrous dimethyl sulfoxide (DMSO, Catalogue #: 276855), Hanks' Balanced Salt Solution supplemented with 20 mM HEPES and 4.2 mM Sodium Bicarbonate (HBSS, pH: 7.4, Catalogue #: H1387).
After 2 h the Fe levels in the media were measured and the increase determined as a percentage increase relative to the cell media in the absence of the compound.
Representative data is provided in Table 13 where the % Fe efflux for the specified compounds of the invention lie in the following ranges: A<30%, B 30-100%, C 100-150%; D>150%.

phospho-GSK-3β = assay: GSK 3b assay: Zn ionophore-enhanced phosphorylation of GSK-3β (AlphaScreen SureFire Phospho-GSK 3β (Ser9) kit) in SH-SY5Y cells; format: cell-based, human; settings: test compound 2 μM + ZnCl2 5 μM, 2 h at 37° C.
Protocol: The phosphorylation of GSK-3β is enhanced when Zn is imported into a cell by a Zn ionophore. This property was measured for the compounds of the current invention and the data presented relative to the know Zn ionophore PBT2 using the following protocol.
The human neuroblastoma SH-SY5Y cells were obtained from Cell bank Australia (Catalogue number: 94030304). SH-SY5Y cell culture was maintained in DMEM/F12+15% FBS inside an incubator at 37° C. in the presence of 5% CO2. The cells were sub-cultured once a week and the media exchanged once during the week. Cells for the assay were plated at a density of 60,000 cells/well.
Stock solutions of the samples were prepared as a 5 mM stock in DMSO and a stock solution of 1 mM ZnCl2/3 mM Glutamic acid was prepared in water. Immediately before use the compounds were diluted 1:10 with water before being added to Locke's buffer in a treatment tube. Samples were subsequently treated with either distilled water or the ZnCl2/Glutamic acid solution to yield a treatment solution which has a final concentration of the test compound at 2 μM+/−ZnCl2 at 5 μM.
The culture media was aspirated from the wells and the media replaced with the treatment solution prepared above. In addition to the relative standard (PBT2+/−ZnCl2), control wells were also included consisting of +/−ZnCl2 at 5 μM with all treatments done in triplicate. The plate was incubated at 37° C. with the treatment solution for 2 h after which time the wells were aspirated and washed with sterile PBS.
Measurement of the change of phospho-GSK-3β was determined using an AlphaScreen® SureFire® Phospho-GSK […] (Ser9) Kit with the cells being processed as per the manufacturer's instructions using an initial incubation of 2 h/24° C. and a final incubation of 16 h/24° C.
The fluorescence was measured on an Enspire plate reader. […] Representative data is presented in Table 12 using the following ranges: A<50%, B 50-<100%, C 100-<150%, D>150%.

| Compound | activation at 20 µM (BE(2)-M17 (M17) cells) [%] | GSK-Zn (signal as % of the positive standard PBT2+ZnCl2) (phospho-GSK-3β) | Fe-Efflux (% increase of Fe in media relative to cell media in the absence of the compound) (BE(2)-M17 (M17) cells) |
| --- | --- | --- | --- |
| COc1cccc(C(=O)N/N=C(/c2ncccn2)C(C)C)c1 [Compound 50] | < 30 | C (C 100-<150%) | – |
| C/C(=N\NC(=O)c1snnc1C)c1ncccn1 [Compound 48] | > 150 | C (C 100-<150%) | – |
| Cc1cc(C(=O)N/N=C2\CCCc3cccnc32)no1 [Compound 33] | > 150 | – | – |
| C/C(=N\NC(=O)c1cc2c(s1)-c1ccccc1OC2)c1nc(C)cs1 [Compound 101] | < 30 | – | – |
| O=C(N/N=C1\CCCc2cccnc21)c1ccccc1 [Compound 10] | 30 to 100 | B (B 50-<100%) | – |
| O=C(N/N=C1\CCCc2cccnc21)c1ccccc1OCCCN1CCCCC1 [Compound 42] | > 150 | – | – |
| O=C(N/N=C1\CCCc2cccnc21)c1ccccc1Cl [Compound 15] | > 150 | D (D>150%) | – |
| C/C(=N\NC(=O)c1cccc(C)c1)c1nccnc1C [Compound 58] | < 30 | – | – |
| COc1ccccc1C(=O)N/N=C(\C)c1cc(C)ccn1 [Compound 55] | 30 to 100 | – | – |
| C/C(=N\NC(=O)c1cccc(C)c1)c1ncccn1 [Compound 49] | > 150 | B (B 50-<100%) | – |
| COC(=O)CN(/N=C(\C)c1ccccn1)C(=O)c1cc2ccccc2s1 [Compound 147, (E)-Methyl 2-(1-(benzo[b]thiophene-2-carbonyl)-2-(1-(pyridin-2-yl)ethylidene) hydrazinyl) Acetate] | – | – | A (A<30%) |
| O=C(N/N=C1\CCOc2cccnc21)c1cccs1 [Compound 178] | 100 to 150 | – | – |
| Cc1nnsc1C(=O)N/N=C(/c1ncccn1)C(C)C [Compound 52] | 30 to 100 | B (B 50-<100%) | – |
| Cc1nnsc1C(=O)N/N=C1\CCOc2cccnc21 [Compound 172] | 100 to 150 | – | – |
| COc1cccc(C(=O)N/N=C(\C)c2ncccn2)c1 [Compound 47] | 30 to 100 | C (C 100-<150%) | – |
| O=C(N/N=C1\CCOc2cccnc21)c1cccnc1 [Compound 171, (E)-N′-(2,3-dihydro-4H-pyrano[3,2-b]pyridin-4-ylidene)nicotinohydrazide] | < 30 | – | – |
| COc1ccc(C(=O)N/N=C2\CCCc3cccnc32)cc1 [Compound 9] | 30 to 100 | A (A<50%) | – |

| Compound | activation at 20 µM (BE(2)-M17 (M17) cells) [%] | GSK-Zn (signal as % of the positive standard PBT2+ZnCl2) (phospho-GSK-3β) | Fe-Efflux (% increase of Fe in media relative to cell media in the absence of the compound) (BE(2)-M17 (M17) cells) |
| --- | --- | --- | --- |
| CCOc1ccccc1C(=O)N/N=C1\CCCc2cccnc21 [Compound 4] | 30 to 100 | A (A<50%) | – |
| C/C(=N\NC(=O)c1snnc1C)c1ccc2ccccc2n1 [Compound 91] | 30 to 100 | C (C 100-<150%) | – |
| CCOC(=O)C1CCc2cccnc2/C1=N/NC(=O)c1snnc1C (centres unmarked) [Compound 31] | 30 to 100 | – | – |
| C/C(=N\NC(=O)c1snnc1C)c1nccnc1C [Compound 57] | 100 to 150 | – | – |
| O=C(N/N=C/c1cn2ccccc2n1)c1cc2ccccc2s1 [Compound 138] | < 30 | – | – |
| O=C(N/N=C1\CCCc2cccnc21)c1ccccn1 [Compound 2] | 100 to 150 | A (A<50%) | – |
| O=C(N/N=C1\CCCc2cccnc21)c1ccncc1 [Compound 3] | > 150 | A (A<50%) | – |
| Cc1nnsc1C(=O)N/N=C1\CCCc2cccnc21 [Compound 23] | > 150 | C (C 100-<150%) | – |
| COc1ccccc1C(=O)N/N=C1\CCCc2cccnc21 [Compound 8] | 100 to 150 | A (A<50%) | – |
| Cc1ccc(C(=O)N/N=C/c2nccn2C)cn1 [Compound 117] | < 30 | – | – |
| COc1ccc(C(=O)N/N=C2\CCCc3cccnc32)cc1OC [Compound 7] | 30 to 100 | A (A<50%) | – |
| Cc1cccc(C(=NNC(=O)c2ccccc2C)c2cccc(C)n2)n1 [Compound 122] | < 30 | A (A<50%) | – |
| Cc1nc(C)c(C(=O)N/N=C2\CCCc3cccnc32)s1 [Compound 32] | 100 to 150 | – | – |
| O=C(N/N=C1\CCCc2cccnc21)c1ccccc1OCCN1CCCCC1 [Compound 40] | > 150 | – | – |
| COc1cccc(C(=O)N/N=C2\CCCc3cccnc32)c1 [Compound 6] | < 30 | A (A<50%) | – |
| CN(C)CCOc1ccccc1C(=O)N/N=C1\CCCc2cccnc21.Cl [Compound 39] | > 150 | A (A<50%) | – |
| O=C(N/N=C1\CCCc2cccnc21)c1cccnc1 [Compound 1, (E)-N′-(6,7-Dihydroquinolin-8(5H)-ylidene)nicotinohydrazide] | > 150 | A (A<50%) | – |
